In ChEMBL document CHEMBL5724914, “Linking interpersonal differences in gut microbiota composition and drug biotransformation activity” (2024):

Experiments:
[1] = The drug is tested on Z-026 corresponding to metagenome with ENA study accession number: PRJEB37062 and ENA sample accession number: ERS12561825 for biotransformation under anaerobic condition. The drug concentrations were measured over 9 timepoints collected between 0 and 24 hours of incubation by liquid-chromatography-coupled mass spectrometry (LC–MS); conditions: 2 µM
[2] = The drug is tested on Z-014 corresponding to rat gut metagenome with ENA study accession number: PRJEB37062 and ENA sample accession number: ERS12561814 for biotransformation under anaerobic condition. The drug concentrations were measured over 9 timepoints collected between 0 and 24 hours of incubation by liquid-chromatography-coupled mass spectrometry (LC–MS); conditions: 2 µM
[3] = The drug is tested on Z-007 corresponding to rat gut metagenome with ENA study accession number: PRJEB37062 and ENA sample accession number: ERS12561807 for biotransformation under anaerobic condition. The drug concentrations were measured over 9 timepoints collected between 0 and 24 hours of incubation by liquid-chromatography-coupled mass spectrometry (LC–MS); conditions: 2 µM
[4] = The drug is tested on Z-001 corresponding to mouse gut metagenome with ENA study accession number: PRJEB37062 and ENA sample accession number: ERS12561801 for biotransformation under anaerobic condition. The drug concentrations were measured over 9 timepoints collected between 0 and 24 hours of incubation by liquid-chromatography-coupled mass spectrometry (LC–MS); conditions: 2 µM
[5] = The drug is tested on WLS-370 corresponding to human gut metagenome with ENA study accession number: PRJEB37062 and ENA sample accession number: ERS12561793 for biotransformation under anaerobic condition. The drug concentrations were measured over 9 timepoints collected between 0 and 24 hours of incubation by liquid-chromatography-coupled mass spectrometry (LC–MS); conditions: 2 µM
[6] = The drug is tested on WLS-086 corresponding to human gut metagenome with ENA study accession number: PRJEB37062 and ENA sample accession number: ERS12561752 for biotransformation under anaerobic condition. The drug concentrations were measured over 9 timepoints collected between 0 and 24 hours of incubation by liquid-chromatography-coupled mass spectrometry (LC–MS); conditions: 2 µM
[7] = The drug is tested on WLS-077 corresponding to human gut metagenome with ENA study accession number: PRJEB37062 and ENA sample accession number: ERS12561750 for biotransformation under anaerobic condition. The drug concentrations were measured over 9 timepoints collected between 0 and 24 hours of incubation by liquid-chromatography-coupled mass spectrometry (LC–MS); conditions: 2 µM
[8] = The drug is tested on WLS-052 corresponding to human gut metagenome with ENA study accession number: PRJEB37062 and ENA sample accession number: ERS12561747 for biotransformation under anaerobic condition. The drug concentrations were measured over 9 timepoints collected between 0 and 24 hours of incubation by liquid-chromatography-coupled mass spectrometry (LC–MS); conditions: 2 µM
[9] = The drug is tested on WLS-010 corresponding to human gut metagenome with ENA study accession number: PRJEB37062 and ENA sample accession number: ERS12561743 for biotransformation under anaerobic condition. The drug concentrations were measured over 9 timepoints collected between 0 and 24 hours of incubation by liquid-chromatography-coupled mass spectrometry (LC–MS); conditions: 2 µM
[10] = human gut metagenome, 24 h, 2 µM
[11] = human gut metagenome, 24 h, 2 µM; remark: listed apart in the source
[12] = human gut metagenome, 24 h, 2 µM; remark: listed apart in the source
[13] = human gut metagenome, 24 h, 2 µM; remark: listed apart in the source
[14] = human gut metagenome, 24 h, 2 µM; remark: listed apart in the source
[15] = human gut metagenome, 24 h, 2 µM; remark: listed apart in the source
[16] = human gut metagenome, 24 h, 2 µM; remark: listed apart in the source
[17] = human gut metagenome, 24 h, 2 µM; remark: listed apart in the source
[18] = human gut metagenome, 24 h, 2 µM; remark: listed apart in the source
[19] = human gut metagenome, 24 h, 2 µM; remark: listed apart in the source
[20] = human gut metagenome, 24 h, 2 µM; remark: listed apart in the source
Also: call rule not given here.

Row | Structure (SMILES) | Bacterial Biotransformation [1] | Bacterial Biotransformation [2] | Bacterial Biotransformation [3] | Bacterial Biotransformation [4] | Bacterial Biotransformation [5] | Bacterial Biotransformation [6] | Bacterial Biotransformation [7] | Bacterial Biotransformation [8] | Bacterial Biotransformation [9] | Bacterial Biotransformation [10] | Bacterial Biotransformation [11] | Bacterial Biotransformation [12] | Bacterial Biotransformation [13] | Bacterial Biotransformation [14] | Bacterial Biotransformation [15] | Bacterial Biotransformation [16] | Bacterial Biotransformation [17] | Bacterial Biotransformation [18] | Bacterial Biotransformation [19] | Bacterial Biotransformation [20]
1 | CCN(CC)C(=O)C1(c2ccccc2)CC1CN (stereo not drawn) | Compound NOT metabolized | Compound NOT metabolized | Compound NOT metabolized | Compound NOT metabolized | Compound NOT metabolized | Compound NOT metabolized | Compound NOT metabolized | Compound NOT metabolized | Compound NOT metabolized | Compound NOT metabolized | Compound NOT metabolized | Compound NOT metabolized | Compound NOT metabolized | Compound NOT metabolized | Compound NOT metabolized | Compound NOT metabolized | Compound NOT metabolized | Compound NOT metabolized | Compound NOT metabolized | Compound NOT metabolized
2 | Nc1nc(NC2CC2)c2ncn([C@H]3C=C[C@@H](CO)C3)c2n1.Nc1nc(NC2CC2)c2ncn([C@H]3C=C[C@@H](CO)C3)c2n1.O=S(=O)(O)O [ABACAVIR SULFATE] | Compound NOT metabolized | Compound NOT metabolized | Compound NOT metabolized | Compound NOT metabolized | Compound NOT metabolized | Compound metabolized | Compound metabolized | Compound NOT metabolized | Compound NOT metabolized | Compound NOT metabolized | Compound NOT metabolized | Compound NOT metabolized | Compound metabolized | Compound metabolized | Compound metabolized | Compound metabolized | Compound metabolized | Compound metabolized | Compound NOT metabolized | Compound metabolized
3 | CCN(CC)CCNC(=O)c1ccc(NC(C)=O)cc1 [ACECAINIDE] | Compound NOT metabolized | Compound NOT metabolized | Compound NOT metabolized | Compound NOT metabolized | Compound NOT metabolized | Compound metabolized | Compound NOT metabolized | Compound NOT metabolized | Compound NOT metabolized | Compound NOT metabolized | Compound NOT metabolized | Compound NOT metabolized | Compound NOT metabolized | Compound metabolized | Compound NOT metabolized | Compound metabolized | Compound NOT metabolized | Compound metabolized | Compound NOT metabolized | Compound NOT metabolized

Now from value to molecule:

Row | Bacterial Biotransformation [1] | Bacterial Biotransformation [2] | Bacterial Biotransformation [3] | Bacterial Biotransformation [4] | Bacterial Biotransformation [5] | Bacterial Biotransformation [6] | Bacterial Biotransformation [7] | Bacterial Biotransformation [8] | Bacterial Biotransformation [9] | Bacterial Biotransformation [10] | Bacterial Biotransformation [11] | Bacterial Biotransformation [12] | Bacterial Biotransformation [13] | Bacterial Biotransformation [14] | Bacterial Biotransformation [15] | Bacterial Biotransformation [16] | Bacterial Biotransformation [17] | Bacterial Biotransformation [18] | Bacterial Biotransformation [19] | Bacterial Biotransformation [20] | Structure (SMILES)
4 | Compound NOT metabolized | Compound NOT metabolized | Compound NOT metabolized | Compound NOT metabolized | Compound NOT metabolized | Compound metabolized | Compound NOT metabolized | Compound metabolized | Compound metabolized | Compound NOT metabolized | Compound NOT metabolized | Compound metabolized | Compound metabolized | Compound metabolized | Compound NOT metabolized | Compound metabolized | Compound NOT metabolized | Compound metabolized | Compound NOT metabolized | Compound metabolized | O=C1CN2Cc3c(ccc(Cl)c3Cl)N=C2N1 [ANAGRELIDE]
5 | Compound metabolized | Compound metabolized | Compound metabolized | Compound metabolized | Compound metabolized | Compound metabolized | Compound metabolized | Compound metabolized | Compound metabolized | Compound metabolized | Compound metabolized | Compound metabolized | Compound metabolized | Compound metabolized | Compound metabolized | Compound metabolized | Compound metabolized |  | Compound metabolized | Compound metabolized | CC(=O)OCC(=O)NCCCOc1cccc(CN2CCCCC2)c1 [ROXATIDINE ACETATE]
6 | Compound NOT metabolized | Compound NOT metabolized | Compound NOT metabolized | Compound NOT metabolized | Compound NOT metabolized | Compound NOT metabolized | Compound NOT metabolized | Compound NOT metabolized | Compound NOT metabolized | Compound NOT metabolized | Compound NOT metabolized | Compound NOT metabolized | Compound NOT metabolized | Compound NOT metabolized | Compound NOT metabolized |  | Compound NOT metabolized | Compound NOT metabolized | Compound NOT metabolized | Compound NOT metabolized | COc1cc(C(=O)NCc2ccc(OCCN(C)C)cc2)cc(OC)c1OC [TRIMETHOBENZAMIDE]
